The source of these data is patent US20260085062A1, “NOVEL COMPOUNDS AS CK2 INHIBITORS” (Cambridge Enterprise Limited, priority 2022, published 2026).

One test has as its target T1, intracellular CK2α (Homo sapiens, UniProt P19784).
T1 construct: host or cells: HCT116 (ATCC CCL-247)
The test is described as follows: Cell-based NanoBRET assay for inhibitor binding to intracellular CK2α. As to conditions: HCT116 cells transiently transfected with CSNK2A2-NanoLuc fusion vector; Tracer K-5; 2 h; read-out: Assay 3: NanoBRET ™ assay for binding to intracellular CK2α. In short, it runs like this:
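Apparent affinity came from BRET ratio (acceptor/donor ×1,000), with donor read at 450 nm and acceptor at 610 or 630 nm. Compounds competed off a tracer added at fixed concentration to cells carrying a NanoLuc-CK2α fusion.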
(Bioluminescence resonance energy transfer reports proximity on the nanometre scale.)

Another test concerns the target T2, CK2α (Homo sapiens, UniProt P68400).
T2 construct: CK2α (residues 2-329) was produced in Escherichia coli BL21 (DE3) for kinase activity screening; His6 (N, cleaved yes); made in house; host or cells: Escherichia coli BL21 (DE3)
T2 sequence (P68400 2-329): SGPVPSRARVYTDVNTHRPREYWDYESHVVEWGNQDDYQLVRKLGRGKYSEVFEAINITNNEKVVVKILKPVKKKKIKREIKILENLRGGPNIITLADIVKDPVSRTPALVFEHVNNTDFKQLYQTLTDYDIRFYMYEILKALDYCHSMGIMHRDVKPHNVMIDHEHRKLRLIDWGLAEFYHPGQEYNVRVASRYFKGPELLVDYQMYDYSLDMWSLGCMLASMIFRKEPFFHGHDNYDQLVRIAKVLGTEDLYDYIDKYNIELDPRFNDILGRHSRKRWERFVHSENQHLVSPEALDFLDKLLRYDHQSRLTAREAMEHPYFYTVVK
The test is described as follows: Biochemical assay for inhibitors of CK2α kinase activity (ADP-Glo). As to conditions: 0.2 nM CK2α, 50 μM peptide substrate, 15 μM ATP, read-out: Assay 1: CK2α Enzyme IC50. A general note: ADP-Glo first removes unused ATP, then detects ADP through luciferase.

In another test the target is T3, CLK2 (Homo sapiens, UniProt P49760).
T3 construct: purchased Carna Biosciences 04-127
T3 sequence (P49760 whole entry): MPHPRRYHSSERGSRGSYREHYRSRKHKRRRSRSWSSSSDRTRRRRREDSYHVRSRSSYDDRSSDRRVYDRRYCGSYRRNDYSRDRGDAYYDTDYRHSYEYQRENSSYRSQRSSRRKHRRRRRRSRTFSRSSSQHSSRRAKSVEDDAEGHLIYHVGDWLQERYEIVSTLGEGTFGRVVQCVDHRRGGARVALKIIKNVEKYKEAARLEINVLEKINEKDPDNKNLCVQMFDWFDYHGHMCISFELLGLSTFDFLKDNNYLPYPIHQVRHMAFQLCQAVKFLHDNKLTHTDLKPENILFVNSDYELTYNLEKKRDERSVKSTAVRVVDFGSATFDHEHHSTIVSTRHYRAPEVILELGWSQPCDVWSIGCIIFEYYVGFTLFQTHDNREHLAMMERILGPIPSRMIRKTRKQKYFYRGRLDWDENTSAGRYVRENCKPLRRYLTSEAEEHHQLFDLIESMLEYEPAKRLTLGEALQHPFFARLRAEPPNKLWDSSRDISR
The test is described as follows: Biochemical assay for inhibitors of CLK2 kinase activity (ADP-Glo). Conditions: 20 nM CLK2, 50 μM peptide substrate, 100 μM ATP, read-out: Assay 2: CLK2 Enzyme IC50.

Bounds are passed on as bounds.

T1 sequence (P19784 whole entry): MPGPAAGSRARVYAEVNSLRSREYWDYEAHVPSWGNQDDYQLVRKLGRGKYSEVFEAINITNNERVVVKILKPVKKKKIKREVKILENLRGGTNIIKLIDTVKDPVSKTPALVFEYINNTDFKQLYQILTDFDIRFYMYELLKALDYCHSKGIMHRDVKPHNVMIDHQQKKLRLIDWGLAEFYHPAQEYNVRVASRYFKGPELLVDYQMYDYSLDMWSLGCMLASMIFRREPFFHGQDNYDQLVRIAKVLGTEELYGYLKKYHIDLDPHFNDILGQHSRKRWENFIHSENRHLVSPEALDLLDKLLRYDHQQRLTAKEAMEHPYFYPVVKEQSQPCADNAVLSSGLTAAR

As to `O=C(CCNCc1ccc(OC(F)(F)F)c(Cl)c1)NCCCNc1cc(-c2ccncc2)c(F)c2[nH]ncc12` [Example 180, 3-((3-chloro-4-(trifluoromethoxy)benzyl)amino)-N-(3-((7-fluoro-6-(pyridin-4-yl)-1H-indazol-4-yl)amino)propyl)propanamide], the IC50 stood at 100 nM on intracellular CK2α, 3.68 nM at CK2α and 190 nM at CLK2.

As for `O=C(CCNCc1ccc(OC(F)(F)F)c(Cl)c1)NCCCNc1cc(-n2cnnc2)c(Cl)c2[nH]ncc12` [Example 181, 3-((3-chloro-4-(trifluoromethoxy)benzyl)amino)-N-(3-((7-chloro-6-(4H-1,2,4-triazol-4-yl)-1H-indazol-4-yl)amino)propyl)propanamide], the IC50 at intracellular CK2α came out at 11400 nM; on CK2α, 17 nM; on CLK2, 448 nM.

As for `O=C(CCNCc1ccc(-c2ccccc2CO)c(Cl)c1)NCCCNc1cc(-n2cnnc2)cc2[nH]ncc12` [Example 58, N-(3-((6-(4H-1,2,4-triazol-4-yl)-1H-indazol-4-yl)amino)propyl)-3-(((2-chloro-2′-(hydroxymethyl)-[1,1′-biphenyl]-4-yl)methyl)amino)propanamide], the IC50 on intracellular CK2α is 9290 nM; on CK2α, 0.28 nM; at CLK2 it was 40.9 nM.

As for `O=C(O)c1cc(NCCOCCCCNCc2cc3cc(C(F)(F)F)ccc3[nH]2)c2cn[nH]c2c1` [Example 85, 4-((2-(4-(((5-(trifluoromethyl)-1H-indol-2-yl)methyl)amino)butoxy)ethyl)amino)-1H-indazole-6-carboxylic acid], the IC50 on intracellular CK2α was > 50000 nM; at CK2α, 743 nM; at CLK2, 37100 nM.

With `O=C(Cc1nnc(CCNCc2ccc(OC(F)(F)F)c(Cl)c2)[nH]1)Nc1cc(-n2cnnc2)cc2[nH]ncc12` [Example 65, N-(6-(4H-1,2,4-triazol-4-yl)-1H-indazol-4-yl)-2-(5-(2-((3-chloro-4-_(trifluoromethoxy)benzyl)amino)ethyl)-4H-1,2,4-triazol-3-yl)acetamide], the IC50 on intracellular CK2α is > 50000 nM; on CK2α, 163 nM; on CLK2 it was 4160 nM.

As to `O=C(CCNCc1ccc(OC(F)(F)F)c(Cl)c1)NCCCNc1cc(-c2cn[nH]c(=O)c2)cc2[nH]ncc12` [Example 168, 3-((3-chloro-4-(trifluoromethoxy)benzyl)amino)-N-(3-((6-(6-oxo-1,6-dihydropyridazin-4-yl)-1H-indazol-4-yl)amino)propyl)propanamide], the IC50 on intracellular CK2α came out at 208 nM; at CK2α it was 0.64 nM; at CLK2, 81.2 nM.

As for `OCc1cc(Cl)cc(CNCCCCOC2CN(c3cc(-c4ccnnc4)cc4[nH]ncc34)C2)c1` [Example 111, (3-chloro-5-(((4-((1-(6-(pyridazin-4-yl)-1H-indazol-4-yl)azetidin-3-yl)oxy)butyl)amino)methyl)phenyl)methanol], the results for the IC50 on intracellular CK2α, on CK2α and on CLK2 were 14200 nM, 228 nM and 2300 nM, respectively.

For `O=C(CCNCc1ccc(OC(F)(F)F)c(Cl)c1)NCCCNc1cc(-c2ccncc2)cc2[nH]ncc12` [Example 5, 3-((3-Chloro-4-(trifluoromethoxy)benzyl)amino)-N-(3-((6-(pyridin-4-yl)-1H-indazol-4-yl)amino)propyl)propanamide], the IC50 at intracellular CK2α is 240 nM; at CK2α, 2.15 nM; at CLK2, 306 nM.

As for `c1cc2[nH]c(CNCCCCOCCNc3cc(-c4cnoc4)cc4[nH]ncc34)cc2cc1OC1CCC1` [Example 98, N-(2-(4-(((5-cyclobutoxy-1H-indol-2-yl)methyl)amino)butoxy)ethyl)-6-(isoxazol-4-yl)-1H-indazol-4-amine], the IC50 on intracellular CK2α stood at 105 nM; at CK2α, 0.82 nM; at CLK2 it was 122 nM.

Turning to `O=C(O)Cc1cc(NCCOCCCCNCc2cc(F)c(OC(F)(F)F)c(F)c2)c2cn[nH]c2c1` [Example 198, 2-(4-((2-(4-((3,5-difluoro-4-(trifluoromethoxy)benzyl)amino)butoxy)ethyl)amino)-1H-indazol-6-yl)acetic acid], the IC50 at intracellular CK2α was > 3000 nM; at CK2α it was 72.6 nM; at CLK2, > 50000 nM.

On to `N#Cc1cc(NCCOCCCCNCc2cc(F)c(OC(F)(F)F)c(F)c2)c2cn[nH]c2c1` [Example 167, 4-((2-(4-((3,5-difluoro-4-(trifluoromethoxy)benzyl)amino)butoxy)ethyl)amino)-1H-indazole-6-carbonitrile], for which the IC50 at intracellular CK2α was 831 nM; on CK2α, 21 nM; at CLK2 it was 774 nM.

As to `O=C(CCNCc1ccc(-c2ccccc2)c(Cl)c1)NCCCNc1cc(-c2cc[n+]([O-])cc2)cc2[nH]ncc12` [Example 30, 4-(4-((3-(3-(((2-chloro-[1,1′-biphenyl]-4-yl)methyl)amino)propanamido)propyl)amino)-1H-indazol-6-yl)pyridine 1-oxide], the IC50 at intracellular CK2α amounted to 816 nM; at CK2α, 0.99 nM; at CLK2, 2560 nM.

Regarding `C[C@H](COCCCCNCc1cc(CO)cc(OC(F)(F)F)c1)Nc1cc(-c2cnns2)cc2[nH]ncc12` [Example 208, (R)-(3-(((4-(2-((6-(1,2,3-thiadiazol-5-yl)-1H-indazol-4-yl)amino)propoxy)butyl)amino)methyl)-5-(trifluoromethoxy)phe-nyl)methanol], the IC50 on intracellular CK2α is 69.9 nM; at CK2α it was 8.92 nM; on CLK2 it was 69.7 nM.

Regarding `FC(F)(F)Oc1ccc(CNCCc2ncc(CCNc3cc(-n4cnnc4)cc4[nH]ncc34)o2)cc1Cl` [Example 64, N-(2-(2-(2-((3-chloro-4-(trifluoromethoxy)benzyl)amino)ethyl)oxazol-5-yl)ethyl)-6-(4H-1,2,4-triazol-4-yl)-1H-indazol-4-amine], the IC50 on intracellular CK2α was 1840 nM; on CK2α it was 7.88 nM; on CLK2 it was 350 nM.

On to `OCc1cc(F)cc(CNCCCCOC2CN(c3cc(-c4ccnnc4)cc4[nH]ncc34)C2)c1` [Example 110, (3-fluoro-5-(((4-((1-(6-(pyridazin-4-yl)-1H-indazol-4-yl)azetidin-3-yl)oxy)butyl)amino)methyl)phenyl)methanol], for which the IC50 on intracellular CK2α was determined as 20600 nM; on CK2α, 384 nM; at CLK2 it was 2720 nM.

Take `O=C(CCNCc1ccc(OC(F)(F)F)c(CO)c1)NCCCNc1cc(-n2cnnc2)cc2[nH]ncc12` [Example 44, N-(3-((6-(4H-1,2,4-triazol-4-yl)-1H-indazol-4-yl)amino)propyl)-3-((3-(hydroxymethyl)-4-(trifluoromethoxy)benzyl)amino)propanamide]: the values for the IC50 at intracellular CK2α, at CK2α and at CLK2 were 16800 nM, 1.46 nM and 39.6 nM, respectively.

With `FC(F)(F)c1ccc2[nH]c(CNCCCCOCCNc3cc(-c4cnoc4)cc4[nH]ncc34)cc2c1` [Example 97, 6-(isoxazol-4-yl)-N-(2-(4-(((5-(trifluoromethyl)-1H-indol-2-yl)methyl)amino)butoxy)ethyl)-1H-indazol-4-amine], the results for the IC50 on intracellular CK2α, on CK2α and at CLK2 were 321 nM, 1.42 nM and 104 nM, respectively.

As for `O=C(CCNCc1ccc(OC(F)(F)F)c(Cl)c1)NCCCNc1cc(-c2cnco2)cc2[nH]ncc12` [Example 164, 3-((3-chloro-4-(trifluoromethoxy)benzyl)amino)-N-(3-((6-(oxazol-5-yl)-1H-indazol-4-yl)amino)propyl)propanamide], the IC50 on intracellular CK2α worked out at 134 nM; at CK2α, 2.98 nM; at CLK2, 242 nM.

As for `FC(F)(F)c1ccc2[nH]c(CNCCCCOCCOc3cc(-n4cnnc4)cc4[nH]ncc34)cc2c1` [Example 117, 4-(2-((6-(4H-1,2,4-triazol-4-yl)-1H-indazol-4-yl)oxy)ethoxy)-N-((5-(trifluoromethyl)-1H-indol-2-yl)methyl)butan-1-amine], the values for the IC50 on intracellular CK2α, on CK2α and at CLK2 were 214 nM, 3 nM and 1260 nM, respectively.

Take `Nc1cc(-c2cc(NCCCNC(=O)CCNCc3ccc(OC(F)(F)F)c(Cl)c3)c3cn[nH]c3c2)ccn1` [Example 184, N-(3-((6-(2-aminopyridin-4-yl)-1H-indazol-4-yl)amino)propyl)-3-((3-chloro-4-(trifluoromethoxy)benzyl)amino)propanamide]: the IC50 at intracellular CK2α is 177 nM; on CK2α, 0.94 nM; on CLK2 it was 17 nM.

As to `FC(F)(F)Oc1ccc(CNCCCCOCCOc2cc(-n3cnnc3)cc3[nH]nnc23)cc1Cl` [Example 123, 4-(2-((6-(4H-1,2,4-triazol-4-yl)-1H-benzo[d][1,2,3]triazol-4-yl)oxy)ethoxy)-N-(3-chloro-4-(trifluoromethoxy)benzyl)butan-1-amine], the IC50 on intracellular CK2α was > 50000 nM; on CK2α it was 306 nM; at CLK2, 44700 nM.
